Measurements from ChEMBL document CHEMBL1158778, “Paecilosetin, a new bioactive fungal metabolite from a New Zealand isolate of Paecilomyces farinosus” (J Nat Prod, 2005).
In brackets after ≈: the same amount, converted by molar mass.

How the values were obtained:
P388 = experiment: Cytotoxicity against mouse P388 cells by MTT assay; type: functional, cell-based
Bacillus subtilis = experiment: Antimicrobial activity against Bacillus subtilis at 5 ug/disk by agar diffusion assay; type: functional; settings: read-out: IZ
[1] = test system: Trichophyton mentagrophytes; experiment: Antimicrobial activity against Trichophyton mentagrophytes at 40 ug/disk by agar diffusion assay; type: functional; settings: read-out: IZ
Amorphotheca resinae = experiment: Antimicrobial activity against Cladosporium resinae at 40 ug/disk by agar diffusion assay; type: functional; settings: read-out: IZ

CCC(C)/C=C(C)/C=C/C=C/C=C/C(=O)c1c(O)c(-c2ccc(O)cc2)cn(O)c1=O (stereo not given) [FARINOSONE B]
IC50 (P388): 1.1 µg/mL (≈ 2.61 µM)

C/C=C/[C@@H]1C=C[C@@H]2C[C@H](C)CC[C@H]2[C@]1(C)/C(O)=C1\C(=O)N[C@@H](C(C)O)C1=O (stereo not given in full) [PAECILOSETIN]
zone of inhibition at 5 µg/disc (Bacillus subtilis): 3 mm | zone of inhibition at 40 µg/disc [1]: 3 mm | zone of inhibition at 40 µg/disc (Amorphotheca resinae): 1 mm | IC50 (P388): 3.2 µg/mL (≈ 8.57 µM)
